In one assay the test system is tau. Put plainly: Tau phosphorylation in human iPSC-derived neurons (Western blot AT8/HT7). In kind it is cell-based. The note with it: 0.4 μM, 48 h. The procedure: Human iPSC-derived neurons were treated with 1015 (0.4 μM) for 48 h, and the mRNA levels of axin2 (B), neuroD1 (C) and SOX2 (D) were determined by qPCR. All the values are the average of three independent experiments with the SE values indicated by error bars. * P<0.05, ** P<0.01 verse corresponding control. (E) Human iPSC-derived neurons were treated with 1015 (0.4 μM) for 48 h, and the levels of phopspho-tau (p-tau) and total tau were determined by Western blotting with specific antibodies AT8 and HT7, respectively. This experiment is a representative of two such experiments performed with similar data.
NeuroD1, a proneural basic helix-loop-helix (bHLH) transcription factor, plays a critical role in CNS development, and is important for survival of neuronal progenitor cells. There is a TCF/LEF regulatory element in the Neurod1 promoter, and NeuroD1 is a specific target of Wnt/β-catenin signaling. […] In addition, 1015 also induces neural stem cell marker SOX2 expression in human iPSC-derived neurons ([…]). Importantly, 1015 suppresses tau phosphorylation in human iPSC-derived neurons (FIG. 16 at D).
In general terms: Immunoblotting shows a protein as a band on a membrane.

A further assay relates to PS19 mice. Put plainly: Efficacy study in PS19 mice (tauopathy model). In kind it is in vivo. As to conditions: IP 15 mg/kg once daily, 8 weeks. The procedure:
PS19 mice at 33 weeks of age were treated with 1015 (IP, 15 mg/kg) or vehicle [Kolliphor HS-physiological saline (20%:80%)] by a once daily dose schedule for 8 weeks (5 injections per week). (A) Body weight changes during the course of treatment were assessed. (B) The level of Wnt specific target neuroD1 in cortex was determined by qPCR. All the values are the average of from 5-7 mice with the SE values indicated by error bars.* P<0.05, * P<0.01 verse Non-Tg treated with vehicle or PS19 mice treated with vehicle.
(A) PS19 mice at 33 weeks of age were treated with 1015 (IP, 15 mg/kg) or vehicle [Kolliphor HS-physiological saline (20%:80%)] by a once daily dose schedule for 8 weeks (5 injections per week). The levels of tau phosphorylation (p-tau) and total tau in cortex were determined by Western blotting with p-tau antibody AT8, p-tau antibody AT180, and tau antibody HT7, respectively. (B) The intensities of p-tau bands were quantified and normalized to the corresponding signal for actin. The results represented in the histograms are shown as the mean±SE, n=5.
PS19 mice at 33 weeks of age were treated with 1015 (IP, 15 mg/kg) or vehicle [Kolliphor HS-physiological saline (20%:80%)] by a once daily dose schedule for 8 weeks (5 injections per week). (A-D) The levels of cytokines IL6, TNFa, TGF1b and IL1b in cortex were determined by qPCR. All the values are the average of from 5-7 mice with the SE values indicated by error bars. * P<0.05, * P<0.01, ** P<0.001.
1015 activates Wnt/β-catenin signaling and prevents body weight loss in PS19 mice: PS19 is a widely used tauopathy model which recapitulates many AD-related phenotypes. […] Therefore, the PS19 mouse model was used for efficacy studies. There was a noticeable drop in weight in all groups after initiation of daily dosing in each group, which is most likely a consequence of the sudden daily manipulation of the mice (FIG. 17 at A).

A further assay deals with LRP6. Nature of the assay: HA-LRP6 expression in HT1080 cells stably transduced with HA-LRP6, Western blot. In kind it is cell-based, human. As to conditions: HT1080 cells stably transduced with HA-LRP6, 24 h. The protocol: (A) structures of niciosamide and CI-994; (B) HEK293 cells were transfected with Super8XTOPFlash and β galactosidase vectors along with Wnt3A or control vector. After 24 hours incubation, cells were treated with CI-994 at the indicated concentration for 24 hr. The luciferase activity was then measured and normalized to the activity of the β-galactosidase. (C) HT1080 cells stably transduced LRP6 with HA tag were treated with niciosamide and CI-994 at the indicated concentrations for 24 h. The levels of HA-LRP6 were examined by Western blot with anti-HA antibody. (D) Western blots showing the depletion of LRP6 after 2 days of transiently transfection of 50 nM LRP6 siRNA in HEK293 cells. […] The luciferase activity was then measured and normalized to β-galactosidase activity. […]
(A) HT1080 cells stably transduced with human LRP6 with HA tag were treated with niciosamide (1 μM) and other compounds as noted (1 μM) for 24 hr. […] The luciferase activity was then measured and normalized to β-galactosidase activity. […]
Western blotting: Cells in 6-well plates were lysed in 0.5 ml of lysis buffer (phosphate-buffered saline containing 1% Triton X-100, 1× Proteinase inhibitor cocktail Complete, and 1 mM PMSF) at 4° C. for 15 min. Equal quantities of protein were subjected to SDS-PAGE under reducing conditions. […]

Structures are written as SMILES.

The values below come from patent US20220267271A1, “WNT ACTIVATORS AND METHODS OF USE” (MAYO FOUNDATION FOR MEDICAL EDUCATION AND RESEARCH, priority 2019, published 2022).

With `Nc1ccccc1NC(=O)c1ccc(C(=O)NCC2CCN2C2CCCC2)cn1` (stereo not drawn) [Compound 1015], the tau phosphorylation result in the assay on tau was “suppresses”. The body weight loss entry with PS19 mice (5 injections per week) is “significantly prevented”. In addition, the “tau phosphorylation in cortex” value in the assay on PS19 mice (AT8 and AT180) is listed as “significantly suppresses”. Also, in the assay on PS19 mice (cortex, qPCR), the “neuroD1 expression in brain” value is reported as “restored, but not over induced” and the “neuroinflammatory cytokine expression (IL6, TNFa, TGF1b, IL1b)” value is “inhibited”.

`CC(=O)Nc1ccc(C(=O)Nc2ccccc2N)cc1` [CI-994, 4-(acetylamino)-N-(2-aminophenyl)benzamide, reference compound]: the HA-LRP6 expression entry with LRP6 was “significantly enhanced”.
